Experimental data from patent US20060148858A1, “1, 2-Azole derivatives with hypoglycemic and hypolipidemic activity” (priority 2002, published 2006).
Like-named read-outs stand apart in the source and are kept apart here.

How the values were obtained:
KKAY mice [1] = assay: Plasma anti-arteriosclerosis index-enhancing action in mice (Test Example 2); type: in vivo; conditions: Mus musculus, po, 96 h, 0.005% in powdery diet, four days, percent increase of (HDL cholesterol/total cholesterol)x100, non-treatment group taken as 100%
Experimental: Test compounds were mixed in a powdery diet (CE-2, Japan Clea) at the concentration of 0.005%, and freely given to KKAY mice (9 to 12 weeks old, 5 mice per group), a model of obese and non-insulin dependent diabetes (type 2 diabetes), for four days. During this period, water was given freely. Blood was sampled from orbital venous plexus and components in plasma separated from blood were determined. Total cholesterol levels were determined by using L type Wako Cholesterol (Wako Pure Chemical Industries, Ltd.). Precipitation reagent for HDL cholesterol (Wako Pure Chemical Industries, Ltd.) was added to a part of the plasma to precipitate non-HDL lipoprotein, and cholesterol (HDL cholesterol) in the resulting supernatant was determined. The plasma anti-arteriosclerosis index [(HDL cholesterol/total cholesterol)×100] was calculated by using these cholesterol levels.
In the Table, “Plasma anti-arteriosclerosis index-enhancing action (%)” represents the percent increase (%) of plasma anti-arteriosclerosis index in the treatment group, when the plasma anti-arteriosclerosis index in the non-treatment group is taken as 100%.

PPARδ-RXRα heterodimer = target: T1, PPARδ-RXRα heterodimer (Homo sapiens, UniProt Q03181); assay: PPARδ-RXRα heterodimer ligand activity, luciferase reporter in COS-1 transformant (Test Example 4); type: cell-based; conditions: COS-1 transformant (hPPARδ, hRXRα, reporter), 36-48 hours, concentration for 50% of the maximum fold induction
T1 construct: expressed in transfected cells; host or cells: COS-1
T1 sequence (Q03181 1-441): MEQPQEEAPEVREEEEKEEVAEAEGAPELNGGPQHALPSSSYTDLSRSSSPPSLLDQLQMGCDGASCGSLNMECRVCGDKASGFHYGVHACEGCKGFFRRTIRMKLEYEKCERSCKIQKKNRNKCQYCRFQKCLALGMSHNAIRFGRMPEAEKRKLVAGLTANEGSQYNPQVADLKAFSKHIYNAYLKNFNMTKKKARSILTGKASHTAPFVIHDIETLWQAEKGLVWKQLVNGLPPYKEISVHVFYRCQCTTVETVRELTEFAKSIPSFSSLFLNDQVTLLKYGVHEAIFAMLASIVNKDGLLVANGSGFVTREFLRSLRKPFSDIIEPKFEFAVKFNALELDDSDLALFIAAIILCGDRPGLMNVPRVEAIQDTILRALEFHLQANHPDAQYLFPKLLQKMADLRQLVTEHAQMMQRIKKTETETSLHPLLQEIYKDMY
T1 sequence (P19793 1-462 partner): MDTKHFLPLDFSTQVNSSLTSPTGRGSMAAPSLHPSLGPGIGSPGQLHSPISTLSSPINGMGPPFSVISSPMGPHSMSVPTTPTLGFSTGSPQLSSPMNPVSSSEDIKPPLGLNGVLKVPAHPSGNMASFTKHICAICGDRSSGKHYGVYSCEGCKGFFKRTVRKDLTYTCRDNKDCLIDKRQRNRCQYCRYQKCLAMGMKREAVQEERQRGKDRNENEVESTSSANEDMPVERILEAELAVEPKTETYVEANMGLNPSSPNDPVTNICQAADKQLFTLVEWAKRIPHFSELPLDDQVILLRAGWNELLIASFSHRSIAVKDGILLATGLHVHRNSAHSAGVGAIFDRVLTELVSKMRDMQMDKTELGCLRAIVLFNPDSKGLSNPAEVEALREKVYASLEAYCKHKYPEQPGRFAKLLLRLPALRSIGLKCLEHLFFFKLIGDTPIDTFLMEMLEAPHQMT
Summary of the method: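 COS-1 cells transiently co-transfected with human PPARδ, human RXRα, PPRE-luciferase reporter and pRL-tk, then exposed to compound 36-48 h at 37 °C in DMEM with 0.1% fatty acid-free BSA. Luciferase read as fold induction over untreated; EC50 at 50% of maximal fold induction.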

KKAY mice [2] = assay: Hypoglycemic and hypolipidemic actions in mice (Test Example 1); type: in vivo; conditions: Mus musculus, po, 96 h, 0.005% in powdery diet, four days, non-treated group taken as 100%
Summary of the method: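 KKAY mice (9 to 12 weeks old, 5 per group) were fed diet containing 0.005% test compound ad libitum for four days. Plasma glucose and triglycerides from orbital venous blood were measured enzymatically, reported as % decrease relative to untreated group (100%).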

[3] = rate of decrease in blood glucose level, read-out: Hypoglycemic action (%)
[4] = rate of decrease in blood triglyceride level, read-out: Hypolipidemic action (%)

## CC(C)c1nn(-c2ccc(C(F)(F)F)cn2)cc1CCCOc1cccc(CC(=O)O)c1 [Example 22, [3-(3-{3-isopropyl-1-[5-(trifluoromethyl)-2-pyridyl]-1H-pyrazol-4-yl}propoxy)phenyl]acetic acid]
KKAY mice [1]
  change in vivo at 0.005 % in diet: 12%
PPARδ-RXRα heterodimer
  EC50: 8.6 nM
other
  melting point: 82 to 83 °C

## Cc1nn(-c2ccc(C(F)(F)F)cn2)cc1COc1ccc(OC(C)(C)C(=O)O)cc1 [Example 34, 2-methyl-2-(4-{3-methyl-1-[5-(trifluoromethyl)-2-pyridyl]-1H-pyrazol-4-ylmethoxy}phenoxy)propionic acid]
KKAY mice [1]
  change in vivo at 0.005 % in diet: 20%
PPARδ-RXRα heterodimer
  EC50: 8.1 nM
other
  melting point: 106 to 107 °C
KKAY mice [2]; [3]
  inhibition in vivo at 0.005 % in diet: 49%
KKAY mice [2]; [4]
  inhibition in vivo at 0.005 % in diet: 77%

## CCOc1cc(OCCCc2cn(-c3ccc(C(F)(F)F)cn3)nc2OCC)ccc1CCC(=O)O [Example 35, 3-[2-ethoxy-4-(3-{3-ethoxy-1-[5-(trifluoromethyl)-2-pyridyl]-1H-pyrazol-4-yl}propoxy)phenyl]propionic acid]
KKAY mice [1]
  change in vivo at 0.005 % in diet: 14%
PPARδ-RXRα heterodimer
  EC50: 1.6 nM
other
  melting point: 96 to 97 °C
KKAY mice [2]; [3]
  inhibition in vivo at 0.005 % in diet: 30%
KKAY mice [2]; [4]
  inhibition in vivo at 0.005 % in diet: 32%

## COc1cccc(CC(=O)O)c1OCCCc1cn(-c2ccc(C(F)(F)F)cc2)nc1C(C)C [Example 185, [2-(3-{3-isopropyl-1-[4-(trifluoromethyl)phenyl]-1H-pyrazol-4-yl}propoxy)-3-methoxyphenyl]acetic acid]
KKAY mice [1]
  change in vivo at 0.005 % in diet: 15%
other
  melting point: 114 to 115 °C
KKAY mice [2]; [3]
  inhibition in vivo at 0.005 % in diet: 47%
KKAY mice [2]; [4]
  inhibition in vivo at 0.005 % in diet: 43%

## CCC(CC)c1nn(-c2ccc(Cl)cn2)cc1CCCOc1c(C)cccc1CC(=O)O [Example 224, (2-{3-[1-(5-chloro-2-pyridyl)-3-(1-ethylpropyl)-1H-pyrazol-4-yl]propoxy}-3-methylphenyl)acetic acid]
KKAY mice [1]
  change in vivo at 0.005 % in diet: 14%
other
  melting point: 106 to 107 °C
KKAY mice [2]; [3]
  inhibition in vivo at 0.005 % in diet: 48%
KKAY mice [2]; [4]
  inhibition in vivo at 0.005 % in diet: 60%

## CCOc1cccc(CC(=O)O)c1OCCCc1cn(-c2ccc(Cl)cn2)nc1C(CC)CC [Example 225, (2-{3-[1-(5-chloro-2-pyridyl)-3-(1-ethylpropyl)-1H-pyrazol-4-yl]propoxy}-3-ethoxyphenyl)acetic acid]
KKAY mice [1]
  change in vivo at 0.005 % in diet: 12%
other
  melting point: 92 to 93 °C
KKAY mice [2]; [3]
  inhibition in vivo at 0.005 % in diet: 31%
KKAY mice [2]; [4]
  inhibition in vivo at 0.005 % in diet: 35%

## CCc1cccc(CC(=O)O)c1OCCCc1cn(-c2ccc(Cl)cn2)nc1C(CC)CC [Example 253, (2-{3-[1-(5-chloro-2-pyridinyl)-3-(1-ethylpropyl)-1H-pyrazol-4-yl]propoxy}-3-ethylphenyl)acetic acid]
KKAY mice [1]
  change in vivo at 0.005 % in diet: 16%
other
  melting point: 114 to 115 °C
KKAY mice [2]; [3]
  inhibition in vivo at 0.005 % in diet: 49%
KKAY mice [2]; [4]
  inhibition in vivo at 0.005 % in diet: 35%

## CCCc1nn(-c2ccc(C(F)(F)F)cn2)cc1CCCOc1c(CC(=O)O)cccc1OCC [Example 260, [3-ethoxy-2-(3-{3-propyl-1-[5-(trifluoromethyl)-2-pyridyl]-1H-pyrazol-4-yl}propoxy)phenyl]acetic acid]
KKAY mice [1]
  change in vivo at 0.005 % in diet: 22%
other
  melting point: 133 to 134 °C
KKAY mice [2]; [3]
  inhibition in vivo at 0.005 % in diet: 42%
KKAY mice [2]; [4]
  inhibition in vivo at 0.005 % in diet: 44%

## CCOc1cccc(CC(=O)O)c1OCCCc1cn(-c2ccc(C(F)(F)F)cn2)nc1C(C)C [Example 300, [3-ethoxy-2-(3-{3-isopropyl-1-[5-(trifluoromethyl)-2-pyridinyl]-1H-pyrazol-4-yl}propoxy)phenyl]acetic acid]
KKAY mice [1]
  change in vivo at 0.005 % in diet: 12%
other
  melting point: 141 to 142 °C
KKAY mice [2]; [3]
  inhibition in vivo at 0.005 % in diet: 36%
KKAY mice [2]; [4]
  inhibition in vivo at 0.005 % in diet: 39%

## CCCc1nn(-c2ccc(C(F)(F)F)cn2)cc1CCCOc1nn(CC)cc1CC(=O)O [Example 305, [1-ethyl-3-(3-{3-propyl-1-[5-(trifluoromethyl)-2-pyridinyl]-1H-pyrazol-4-yl}propoxy)-1H-pyrazol-4-yl]acetic acid]
KKAY mice [1]
  change in vivo at 0.005 % in diet: 22%
other
  melting point: 105 to 106 °C
KKAY mice [2]; [3]
  inhibition in vivo at 0.005 % in diet: 50%
KKAY mice [2]; [4]
  inhibition in vivo at 0.005 % in diet: 55%

## CCn1cc(CC(=O)O)c(OCCCc2cn(-c3ccc(C(F)(F)F)cn3)nc2C(C)C)n1 [Example 313, [1-ethyl-3-(3-{3-isopropyl-1-[5-(trifluoromethyl)-2-pyridinyl]-1H-pyrazol-4-yl}propoxy)-1H-pyrazol-4-yl]acetic acid]
KKAY mice [1]
  change in vivo at 0.005 % in diet: 15%
other
  melting point: 99 to 100 °C
KKAY mice [2]; [3]
  inhibition in vivo at 0.005 % in diet: 51%
KKAY mice [2]; [4]
  inhibition in vivo at 0.005 % in diet: 48%

## CCC(CC)c1nn(-c2ccc(C(F)(F)F)nn2)cc1CCCOc1c(CC(=O)O)cccc1OC [Example 339, [2-(3-{3-(1-ethylpropyl)-1-[6-(trifluoromethyl)pyridazin-3-yl]-1H-pyrazol-4-yl}propoxy)-3-methoxyphenyl]acetic acid]
KKAY mice [1]
  change in vivo at 0.005 % in diet: 22%
other
  melting point: 81 to 82 °C
KKAY mice [2]; [3]
  inhibition in vivo at 0.005 % in diet: 50%
KKAY mice [2]; [4]
  inhibition in vivo at 0.005 % in diet: 54%
